Assay results taken from US20250114345A1, “COMPOUNDS AND COMPOSITIONS AS CBP/P300 DEGRADERS AND USES THEREOF” (Oncopia Therapeutics, Inc. d/b/a/ SK Life Science Labs, priority 2023, published 2025).

How the values were obtained:
CBP = molecular target: T1, CBP (Homo sapiens, UniProt Q92793); assay: CBP degradation, HiBit technology in A549 CBP HiBit cells (24 h); type: cell-based; details: 24 hrs post treatment
T1 construct: host or cells: A549 CBP HiBit cells
Experimental: p300 and CBP degradation potency and Dmax were determined using in cell western (ICW) assay technology in H1299 cells or HiBit technology in A549 HiBit cells.
A549 P300 HiBit and A549 CBP HiBit cells were plated in separate 384-well, TC treated, white-opaque, flat-bottomed microplate. Cells were plated at a cell density of 0.2×10^4 cells per well in assay media comprised of F-12K, 10% heat inactivated FBS, and 1% penicillin/streptomycin. Assay microplates containing HiBit cells were placed in a 37° C., 5% CO2, tissue culture incubator and left to equilibrate overnight. The next day cells were treated with serial dilutions of test compound made up of 10 mM stock solutions in DMSO. 384-Well plates containing treated cells were then placed back into a 37° C., 5% CO2, tissue culture incubator. Assay microplates containing A549 P300 HiBit cells were incubated for 2 hrs post treatment before P300 destruction was assessed, while microplates containing A549 CBP HiBit cells were incubated for 24 hrs post treatment before CBP destruction was determined. On the day of each assay time point, microplates were removed from the tissue culture incubator and prepared HiBit Lytic detection buffer (Promega, cat #N3O40) was added to each plate. Plates were covered with aluminum foil and incubated for ten minutes at room temperature on an orbital shaker. After incubation, luminescent signal of each plate was measured using the Envision instrument (Perkin Elmer).

p300 = molecular target: T2, p300 (Homo sapiens, UniProt Q09472); assay: P300 degradation, HiBit technology in A549 P300 HiBit cells (2 h); type: cell-based; details: 2 hrs post treatment; for Dmax: A549, A549 P300 HiBit cells; for DC50: A549 P300 HiBit cells
T2 construct: host or cells: A549 P300 HiBit cells
Summary of the method: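 Degradation potency and Dmax came from HiBiT luminescence in tagged A549 cells treated with serially diluted compound (DMSO stocks at 10 mM) after overnight equilibration in F-12K with 10% heat-inactivated FBS.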

T1 sequence (Q92793 whole entry): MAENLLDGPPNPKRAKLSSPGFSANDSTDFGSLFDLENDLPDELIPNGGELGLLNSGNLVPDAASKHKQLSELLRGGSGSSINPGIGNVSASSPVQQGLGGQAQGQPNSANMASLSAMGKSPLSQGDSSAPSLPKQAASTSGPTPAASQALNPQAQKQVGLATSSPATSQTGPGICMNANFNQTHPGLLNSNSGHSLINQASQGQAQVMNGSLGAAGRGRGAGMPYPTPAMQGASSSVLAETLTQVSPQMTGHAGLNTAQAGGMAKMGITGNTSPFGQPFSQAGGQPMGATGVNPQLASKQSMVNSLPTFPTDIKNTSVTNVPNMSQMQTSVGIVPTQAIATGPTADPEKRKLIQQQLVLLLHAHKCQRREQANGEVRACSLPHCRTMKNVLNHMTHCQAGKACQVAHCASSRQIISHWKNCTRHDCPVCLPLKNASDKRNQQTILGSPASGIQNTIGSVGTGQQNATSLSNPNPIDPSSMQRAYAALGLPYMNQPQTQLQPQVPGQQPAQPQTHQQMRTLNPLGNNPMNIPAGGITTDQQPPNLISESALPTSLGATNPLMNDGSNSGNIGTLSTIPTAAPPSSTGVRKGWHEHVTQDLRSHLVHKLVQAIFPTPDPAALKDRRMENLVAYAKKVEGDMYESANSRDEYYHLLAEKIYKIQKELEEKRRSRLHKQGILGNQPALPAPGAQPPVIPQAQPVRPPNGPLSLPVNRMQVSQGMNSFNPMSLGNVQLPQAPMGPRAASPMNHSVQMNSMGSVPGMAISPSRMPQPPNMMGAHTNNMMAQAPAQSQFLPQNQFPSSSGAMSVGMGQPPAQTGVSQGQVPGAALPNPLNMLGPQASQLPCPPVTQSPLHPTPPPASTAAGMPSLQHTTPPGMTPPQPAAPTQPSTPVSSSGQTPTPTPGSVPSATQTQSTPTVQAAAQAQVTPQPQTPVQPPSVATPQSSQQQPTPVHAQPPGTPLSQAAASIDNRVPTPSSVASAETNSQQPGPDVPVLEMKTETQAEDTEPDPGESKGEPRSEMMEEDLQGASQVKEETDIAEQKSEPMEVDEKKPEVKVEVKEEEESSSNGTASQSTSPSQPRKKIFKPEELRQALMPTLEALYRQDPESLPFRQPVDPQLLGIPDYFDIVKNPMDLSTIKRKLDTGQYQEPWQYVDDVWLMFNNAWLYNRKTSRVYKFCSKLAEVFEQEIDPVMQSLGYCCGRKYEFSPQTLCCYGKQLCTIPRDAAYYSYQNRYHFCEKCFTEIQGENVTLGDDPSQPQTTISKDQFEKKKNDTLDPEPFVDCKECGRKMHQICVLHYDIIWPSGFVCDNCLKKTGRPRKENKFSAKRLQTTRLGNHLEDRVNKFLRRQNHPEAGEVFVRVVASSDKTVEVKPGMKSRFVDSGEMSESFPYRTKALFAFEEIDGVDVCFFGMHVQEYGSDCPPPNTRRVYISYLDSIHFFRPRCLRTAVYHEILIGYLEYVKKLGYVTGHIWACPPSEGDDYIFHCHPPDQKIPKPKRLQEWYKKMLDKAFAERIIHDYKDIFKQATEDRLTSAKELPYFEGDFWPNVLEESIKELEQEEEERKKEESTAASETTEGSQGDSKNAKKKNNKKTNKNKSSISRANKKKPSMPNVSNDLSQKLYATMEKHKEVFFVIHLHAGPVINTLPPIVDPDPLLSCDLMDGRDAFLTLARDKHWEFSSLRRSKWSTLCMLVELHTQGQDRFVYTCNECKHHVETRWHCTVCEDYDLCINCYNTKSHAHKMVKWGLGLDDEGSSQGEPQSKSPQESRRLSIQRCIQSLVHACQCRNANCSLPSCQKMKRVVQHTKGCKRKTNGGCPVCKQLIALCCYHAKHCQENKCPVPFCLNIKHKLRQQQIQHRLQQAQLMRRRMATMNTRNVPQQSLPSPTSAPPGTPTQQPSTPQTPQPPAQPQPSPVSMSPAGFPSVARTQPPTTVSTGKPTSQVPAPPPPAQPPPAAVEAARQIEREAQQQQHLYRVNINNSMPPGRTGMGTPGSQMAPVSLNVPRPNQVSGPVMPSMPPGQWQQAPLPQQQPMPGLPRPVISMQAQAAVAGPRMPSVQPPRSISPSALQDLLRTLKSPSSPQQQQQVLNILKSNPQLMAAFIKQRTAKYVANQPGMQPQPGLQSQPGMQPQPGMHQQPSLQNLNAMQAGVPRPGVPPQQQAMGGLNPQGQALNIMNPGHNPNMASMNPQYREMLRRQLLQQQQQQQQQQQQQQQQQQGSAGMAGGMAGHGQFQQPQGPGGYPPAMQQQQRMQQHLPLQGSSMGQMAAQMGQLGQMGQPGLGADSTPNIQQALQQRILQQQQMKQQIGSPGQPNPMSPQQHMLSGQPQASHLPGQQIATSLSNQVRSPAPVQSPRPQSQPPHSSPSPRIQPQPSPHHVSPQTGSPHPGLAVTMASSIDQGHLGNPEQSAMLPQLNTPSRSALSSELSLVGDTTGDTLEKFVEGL
T2 sequence (Q09472 whole entry): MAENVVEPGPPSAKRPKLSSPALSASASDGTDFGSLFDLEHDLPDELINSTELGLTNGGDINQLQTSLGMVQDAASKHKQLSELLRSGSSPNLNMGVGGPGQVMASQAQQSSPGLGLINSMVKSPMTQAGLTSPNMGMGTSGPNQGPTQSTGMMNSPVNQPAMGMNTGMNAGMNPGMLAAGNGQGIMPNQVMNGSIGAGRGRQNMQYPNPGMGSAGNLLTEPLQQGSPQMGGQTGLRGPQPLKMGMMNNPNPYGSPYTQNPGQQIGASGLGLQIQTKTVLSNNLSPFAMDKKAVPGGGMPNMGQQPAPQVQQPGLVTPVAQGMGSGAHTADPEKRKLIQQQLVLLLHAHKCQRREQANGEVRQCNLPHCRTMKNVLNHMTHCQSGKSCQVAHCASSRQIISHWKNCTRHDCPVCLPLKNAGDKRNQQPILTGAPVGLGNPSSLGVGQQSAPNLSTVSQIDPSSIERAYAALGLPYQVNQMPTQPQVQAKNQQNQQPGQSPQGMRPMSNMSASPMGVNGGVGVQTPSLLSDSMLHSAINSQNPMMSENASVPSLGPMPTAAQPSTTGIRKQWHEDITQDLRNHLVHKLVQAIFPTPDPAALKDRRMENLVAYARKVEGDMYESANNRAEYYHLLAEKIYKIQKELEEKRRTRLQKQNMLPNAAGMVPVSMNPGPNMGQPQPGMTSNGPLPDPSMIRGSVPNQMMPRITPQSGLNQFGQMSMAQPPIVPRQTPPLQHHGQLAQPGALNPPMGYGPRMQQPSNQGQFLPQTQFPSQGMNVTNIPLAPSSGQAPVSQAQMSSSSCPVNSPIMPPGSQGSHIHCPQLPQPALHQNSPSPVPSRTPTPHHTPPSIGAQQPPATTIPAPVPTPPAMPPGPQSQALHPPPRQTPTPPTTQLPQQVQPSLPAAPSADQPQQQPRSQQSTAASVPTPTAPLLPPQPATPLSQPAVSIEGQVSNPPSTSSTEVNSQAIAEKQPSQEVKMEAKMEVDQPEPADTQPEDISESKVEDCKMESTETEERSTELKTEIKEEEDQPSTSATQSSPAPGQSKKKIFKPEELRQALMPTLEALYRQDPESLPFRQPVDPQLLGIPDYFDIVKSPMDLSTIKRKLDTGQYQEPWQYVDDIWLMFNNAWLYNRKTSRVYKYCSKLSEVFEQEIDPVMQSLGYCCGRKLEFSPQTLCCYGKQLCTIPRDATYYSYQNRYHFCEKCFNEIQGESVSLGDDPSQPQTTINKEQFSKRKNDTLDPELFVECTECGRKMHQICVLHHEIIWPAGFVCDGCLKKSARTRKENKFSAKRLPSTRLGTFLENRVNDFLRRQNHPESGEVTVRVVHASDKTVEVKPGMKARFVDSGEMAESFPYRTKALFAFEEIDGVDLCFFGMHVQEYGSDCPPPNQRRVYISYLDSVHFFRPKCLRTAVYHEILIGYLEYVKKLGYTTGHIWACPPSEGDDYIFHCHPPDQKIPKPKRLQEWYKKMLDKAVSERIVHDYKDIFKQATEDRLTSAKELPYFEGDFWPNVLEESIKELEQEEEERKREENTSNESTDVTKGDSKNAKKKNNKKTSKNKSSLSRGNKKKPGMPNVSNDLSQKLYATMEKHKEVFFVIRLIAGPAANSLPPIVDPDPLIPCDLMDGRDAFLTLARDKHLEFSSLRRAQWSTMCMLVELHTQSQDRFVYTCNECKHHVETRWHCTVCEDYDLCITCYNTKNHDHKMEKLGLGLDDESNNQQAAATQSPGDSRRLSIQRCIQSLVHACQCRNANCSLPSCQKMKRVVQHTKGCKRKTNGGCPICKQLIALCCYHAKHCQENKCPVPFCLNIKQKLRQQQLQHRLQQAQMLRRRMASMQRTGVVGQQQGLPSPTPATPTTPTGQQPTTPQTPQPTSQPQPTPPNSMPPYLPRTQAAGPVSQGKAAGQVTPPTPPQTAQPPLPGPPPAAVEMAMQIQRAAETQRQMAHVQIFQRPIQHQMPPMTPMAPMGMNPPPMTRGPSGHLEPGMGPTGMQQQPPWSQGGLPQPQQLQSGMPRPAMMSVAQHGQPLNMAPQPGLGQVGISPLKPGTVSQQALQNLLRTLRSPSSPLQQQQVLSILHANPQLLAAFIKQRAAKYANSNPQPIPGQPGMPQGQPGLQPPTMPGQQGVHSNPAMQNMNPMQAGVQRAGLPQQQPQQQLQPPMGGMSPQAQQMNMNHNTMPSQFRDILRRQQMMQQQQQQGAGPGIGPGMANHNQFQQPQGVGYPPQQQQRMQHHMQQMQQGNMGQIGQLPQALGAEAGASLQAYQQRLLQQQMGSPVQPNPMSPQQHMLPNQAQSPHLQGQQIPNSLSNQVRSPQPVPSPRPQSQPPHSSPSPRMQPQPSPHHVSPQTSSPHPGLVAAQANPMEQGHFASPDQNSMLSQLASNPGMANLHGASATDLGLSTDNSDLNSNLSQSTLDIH

Compound | DC50 (CBP) [nM] | Dmax (CBP) [%] | Dmax (p300) [%] | DC50 (p300) [nM]
Cc1cc(-c2cc3cccc(-c4cnc5c(c4)n(C)c(=O)n5C)c3cn2)cnc1C(=O)NCC#Cc1cc2c(C3CCC(=O)NC3=O)cccc2o1 (stereo not shown) [Example A189, 5-(8-(1,3-dimethyl-2-oxo-2,3-dihydro-1H-imidazo[4,5-b]pyridin-6-yl)isoquinolin-3-yl)-N-(3-(4-(2,6-dioxopiperidin-3-yl)benzofuran-2-yl)prop-2-yn-1-yl)-3-methylpicolinamide] | > 1000 | < 20 | > 80 | 1 to 9.9
CC(C)c1cc(C2=CC(C)(C)Oc3cc(-c4ccc(C(=O)NCC#Cc5ccc6occ(C7CCC(=O)NC7=O)c6c5)nc4)c(F)cc32)cc2c1n(C)c(=O)n2C (stereo not shown) [Example A57, N-(3-(3-(2,6-dioxopiperidin-3-yl)benzofuran-5-yl)prop-2-yn-1-yl)-5-(6-fluoro-4-(7-isopropyl-1,3-dimethyl-2-oxo-2,3-dihydro-1H-benzo[d]imidazol-5-yl)-2,2-dimethyl-2H-chromen-7-yl)picolinamide] | > 1000 | < 20 | > 80 | 10 to 99
CC(C)c1cc(-c2cccc3cc(-c4ccc(C(=O)NCC#Cc5ccc6cnn(C7CCC(=O)NC7=O)c6c5Cl)nc4)ncc23)cc2c1n(C)c(=O)n2C (stereo not shown) [Example A39, N-(3-(7-Chloro-1-(2,6-dioxopiperidin-3-yl)-1H-indazol-6-yl)prop-2-yn-1-yl)-5-(8-(7-isopropyl-1,3-dimethyl-2-oxo-2,3-dihydro-1H-benzo[d]imidazol-5-yl)isoquinolin-3-yl)picolinamide] | 100 to 999 | 20 to 39 | > 80 | 1 to 9.9
CC(C)c1cc(-c2cccc3cc(-c4ccc(C(=O)NCC#Cc5ccc6cnn(C7CCC(=O)NC7=O)c6c5)nc4)ncc23)cc2c1n(C)c(=O)n2C (stereo not shown) [Example A11, N-(3-(1-(2,6-Dioxopiperidin-3-yl)-1H-indazol-6-yl)prop-2-yn-1-yl)-5-(8-(7-isopropyl-1,3-dimethyl-2-oxo-2,3-dihydro-1H-benzo[d]imidazol-5-yl)isoquinolin-3-yl)picolinamide] | 10 to 99 | 20 to 39 | > 80 | 1 to 9.9
CC(C)c1cc(N2CCOc3cc(-c4ccc(C(=O)NCC#Cc5ccn6ncc(C7CCC(=O)NC7=O)c6c5)nc4)ncc32)cc2c1n(C)c(=O)n2C (stereo not shown) [Example A161, N-(3-(3-(2,6-dioxo-piperidin-3-yl)pyrazolo[1,5-a]pyridin-5-yl)prop-2-yn-1-yl)-5-(4-(7-isopropyl-1,3-dimethyl-2-oxo-2,3-dihydro-1H-benzo[d]imidazol-5-yl)-3,4-dihydro-2H-pyrido[4,3-b][1,4]oxazin-7-yl)picolinamide] | 100 to 999 | < 20 | > 80 | < 1
Cc1cc(-c2cc3cccc(-c4cc5c(c(N6CC7CCC(C6)O7)n4)n(C)c(=O)n5C)c3cn2)cnc1C(=O)NCC#Cc1ccc2occ(C3CCC(=O)NC3=O)c2c1 (stereo not shown) [Example A69, 5-(8-(4-(8-oxa-3-azabicyclo [3.2.1]octan-3-yl)-1,3-dimethyl-2-oxo-2,3-dihydro-1H-imidazo[4,5-c]pyridin-6-yl)isoquinolin-3-yl)-N-(3-(3-(2,6-dioxo-piperidin-3-yl)benzofuran-5-yl)prop-2-yn-1-yl)-3-methylpicolinamide] | > 1000 | < 20 | > 80 | 1 to 9.9
CC(C)c1cc(-c2cccc3cc(-c4ccc(C(=O)NCC#Cc5cc6cccc(C7CCC(=O)NC7=O)c6o5)nc4)ncc23)cc2c1n(C)c(=O)n2C (stereo not shown) [Example A216, N-(3-(7-(2,6-dioxo-piperidin-3-yl)benzofuran-2-yl)prop-2-yn-1-yl)-5-(8-(7-isopropyl-1,3-dimethyl-2-oxo-2,3-dihydro-1H-benzo [d]imidazol-5-yl)isoquinolin-3-yl)picolinamide] | > 1000 | < 20 | > 80 | 1 to 9.9

The remaining lines, values ahead:

DC50 (CBP) [nM] | Dmax (CBP) [%] | Dmax (p300) [%] | DC50 (p300) [nM] | Compound
> 1000 | < 20 | > 80 | 1 to 9.9 | Cc1cc2c(N3CCCc4nc(-c5ccc(C(=O)NCC#Cc6ccc7occ(C8CCC(=O)NC8=O)c7c6)nc5)ncc43)nc(N3CCOCC3)cc2n(C)c1=O (stereo not shown) [Example B62, 5-(5-(1,3-dimethyl-7-morpholino-2-oxo-1,2-dihydro-1,6-naphthyridin-5-yl)-5,6,7,8-tetrahydropyrido[3,2-d]pyrimidin-2-yl)-N-(3-(3-(2,6-dioxopiperidin-3-yl)benzofuran-5-yl)prop-2-yn-1-yl)picolinamide]
> 1000 | < 20 | > 80 | 1 to 9.9 | Cc1cc2c(N3CCCc4nc(-c5ccc(C(=O)NCC#Cc6oc7cccc(C8CCC(=O)NC8=O)c7c6F)nc5)ncc43)cc(C3CCOCC3)cc2n(C)c1=O (stereo not shown) [Example B60, 5-(5-(1,3-dimethyl-2-oxo-7-(tetrahydro-2H-pyran-4-yl)-1,2-dihydroquinolin-5-yl)-5,6,7,8-tetrahydropyrido[3,2-d]pyrimidin-2-yl)-N-(3-(4-(2,6-dioxopiperidin-3-yl)-3-fluorobenzo-furan-2-yl)prop-2-yn-1-yl)picolinamide]
> 1000 | < 20 | 60 to 79 | 1 to 9.9 | Cc1cc2c(N3CCCc4nc(-c5ccc(C(=O)NCC#Cc6ccc7occ(C8CCC(=O)NC8=O)c7c6)nc5)ncc43)cc(Cl)cc2n(C)c1=O (stereo not shown) [Example B119, 5-(5-(7-chloro-1,3-dimethyl-2-oxo-1,2-dihydroquinolin-5-yl)-5,6,7,8-tetrahydro[3,2-d]pyrimidin-2-yl)-N-(3-(3-(2,6-dioxopiperidin-3-yl)benzofuran-5-yl)prop-2-yn-1-yl) picolinamide]
100 to 999 | < 20 | > 80 | < 1 | COc1cc(N2CCOc3cc(-c4ccc(C(=O)NCC#Cc5ccc6occ(C7CCC(=O)NC7=O)c6c5)nc4)ncc32)c2cc(C)c(=O)n(C)c2c1 (stereo not shown) [Example B112, N-(3-(3-(2,6-dioxopiperidin-3-yl)benzofuran-5-yl)prop-2-yn-1-yl)-5-(4-(7-methoxy-1,3-dimethyl-2-oxo-1,2-dihydroquinolin-5-yl)-3,4-dihydro-2H-pyrido[4,3-b][1,4]oxazin-7-yl) picolinamide]
> 1000 | < 20 | 60 to 79 | 1 to 9.9 | Cc1cc2c(N3CCCc4nc(-c5ccc(C(=O)NCC#Cc6ccc7occ(C8CCC(=O)NC8=O)c7c6)nc5)ncc43)nc(N3CC4(COC4)C3)cc2n(C)c1=O (stereo not shown) [Example B137, 5-(5-(1,3-dimethyl-2-oxo-7-(2-oxa-6-azaspiro[3.3]heptan-6-yl)-1,2-dihydro-1,6-naphthyridin-5-yl)-5,6,7,8-tetrahydropyrido [3,2-d]pyrimidin-2-yl)-N-(3-(3-(2,6-dioxo-piperidin-3-yl)benzofuran-5-yl)prop-2-yn-1-yl)picolinamide]
> 1000 | < 20 | > 80 | 1 to 9.9 | Cc1cc2c(-c3cccc4cc(-c5ccc(C(=O)NCC#Cc6cc7c(C8CCC(=O)NC8=O)cccc7o6)nc5)ncc34)nc(N3CCOCC3)cc2n(C)c1=O (stereo not shown) [Example B74, 5-(8-(1,3-dimethyl-7-morpholino-2-oxo-1,2-dihydro-1,6-naphthyridin-5-yl)isoquinolin-3-yl)-N-(3-(4-(2,6-dioxopiperidin-3-yl)benzofuran-2-yl)prop-2-yn-1-yl)picolinamide]
100 to 999 | 40 to 59 | > 80 | 1 to 9.9 | Cc1cc(-c2cc3c(cn2)N(c2cccc4c2cc(C)c(=O)n4C)CCO3)cnc1C(=O)NCC#Cc1ccc2occ(C3CCC(=O)NC3=O)c2c1 (stereo not shown) [Example B83, 5-(4-(1,3-dimethyl-2-oxo-1,2-dihydroquinolin-5-yl)-3,4-dihydro-2H-pyrido[4,3-b][1,4]oxazin-7-yl)-N-(3-(3-(2,6-dioxopiperidin-3-yl)benzofuran-5-yl)prop-2-yn-1-yl)-3-methylpicolinamide]
1 to 9.9 | 40 to 59 | > 80 | < 1 | Cc1cc2c(N3CCN(C)c4nc(-c5ccc(C(=O)NCC#Cc6ccc7occ(C8CCC(=O)NC8=O)c7c6)nc5)ncc43)cc(C3CCOCC3)cc2n(C)c1=O (stereo not shown) [Example B124, 5-(5-(1,3-dimethyl-2-oxo-7-(tetrahydro-2H-pyran-4-yl)-1,2-dihydroquinolin-5-yl)-8-methyl-5,6,7,8-tetrahydropteridin-2-yl)-N-(3-(3-(2,6-dioxopiperidin-3-yl)benzofuran-5-yl)prop-2-yn-1-yl)picolinamide]
100 to 999 | < 20 | > 80 | < 1 | Cc1cc2c(N3CCCc4cc(-c5ccc(C(=O)NCC#Cc6cc7c(C8CCC(=O)NC8=O)nccc7o6)nc5)nnc43)cc(C3CCOCC3)cc2n(C)c1=O (stereo not shown) [Example B84, 5-(8-(1,3-dimethyl-2-oxo-7-(tetrahydro-2H-pyran-4-yl)-1,2-dihydroquinolin-5-yl)-5,6,7,8-tetrahydropyrido[2,3-c]pyridazin-3-yl)-N-(3-(4-(2,6-dioxopiperidin-3-yl)furo [3,2-c]pyridin-2-yl)prop-2-yn-1-yl) picolinamide]
